According to ChEMBL document CHEMBL1149405, “Cytotoxicity of novel derivatives of the spin trap EMPO” (2006):
Active and inactive are the calls of the source. No cut-off for these calls is given here.

Tests used:
[1] = tested on: SW480; test: Decrease in cell number against human colon carcinoma SW480 cell line at 100 mM; format: functional; design: scale not given: the % may be the effect or the level left
[2] = tested on: SW480; test: Decrease in cell number against human colon carcinoma SW480 cell line at 50 mM; format: functional; design: scale not given: the % may be the effect or the level left
[3] = tested on: SK-BR-3; test: LDH release per cell after 24 h with 50 mM of compound in SKBr3 cell line; format: functional, Homo sapiens
[4] = tested on: F2000; test: LDH release per cell after 24 h with 50mM of compound F2000 fibroblasts; format: functional, Homo sapiens
[5] = tested on: SW480; test: Decrease in intracellular GSH levels at 50 mM expressed in […] cell line; format: functional, Homo sapiens; design: scale not given: the % may be the effect or the level left
[6] = tested on: SW480; test: Increase in intracellular GSH levels at 10mM expressed in […] cell line; format: functional, cell-based; settings: Homo sapiens
[7] = tested on: SW480; test: LDH release per cell after 24 h with 50 mM of compound in SW480 cell line; format: functional, Homo sapiens
[8] = tested on: SW480; test: Increase in intracellular GSH levels at 50 mM expressed in […] cell line; format: functional, cell-based; settings: Homo sapiens

SMILES | Activity [1] [%] | Activity [2] [%] | Activity [3] [%] | Activity [4] [%] | Activity [5] [%] | Activity [6] | Activity [7] [%] | Activity [8]
CCCCOC(=O)C1(C)CCC=[N+]1[O-] (configuration not stated) | >90 | 10 |  |  |  |  |  | 
CCCOC(=O)C1(C)CCC=[N+]1[O-] (configuration not stated) | <60 | 10 | 60 | 105 | 38 | Active | 91 | 
CCC(C)OC(=O)C1(C)CCC=[N+]1[O-] (configuration not stated) | >90 | 10 | 101 | 1211 | 67 |  | 1404 | 
CC(C)OC(=O)C1(C)CCC=[N+]1[O-] (configuration not stated) | <60 | 10 | 54 | 84 |  | Active | 78 | Active
CC(C)(C)OC(=O)C1(C)CCC=[N+]1[O-] (configuration not stated) | >90 | 10 | 720 | 670 |  |  | 1280 | 
